Laboratory results reported in ChEMBL document CHEMBL4483862, “Open-source discovery of chemical leads for next-generation chemoprotective antimalarials” (2018).

System: Plasmodium berghei
Assay: Luciferase/luciferin-expressing antifolate-resistant parasites were used to infect a culture of HepG2 cells that were pre-incubated with compounds. Infected hepatocytes emit light due to the luciferase reaction. Assay results are presented as the percent inhibition of light emission compared to control. […]
Assay type: functional
Settings: sporozoite; for IC90: read-out: LUCIFERASE INFECTION ASSAY - IC90

Compound	IC90 [µM]	also measured
c1ccc(CNc2nccc3[nH]c(-c4ccccc4)nc23)cc1	7.44	IC50 (HEPG2TOX_HILL_SLOPE 2.3, HEPG2TOX_R_SQUARED 0.763, PBLUC_HILL_SLOPE 1.79, PBLUC_R_SQUARED 0.522, read-out: LUCIFERASE INFECTION ASSAY - IC50): 2.19 µM
CCN(CC)S(=O)(=O)c1cc(NC(=O)C2CCN(c3ncnc4sc(C)c(C)c34)CC2)ccc1Cl	3.98	IC50 (HEPG2TOX_HILL_SLOPE 2.3, HEPG2TOX_R_SQUARED 0.823, PBLUC_HILL_SLOPE 13, PBLUC_R_SQUARED 0.57, read-out: LUCIFERASE INFECTION ASSAY - IC50): 3.36 µM
CC1(C)CC(N2CCN(C(c3ccccc3)c3ccccc3)CC2)=CC(=[N+]2CCCCC2)C1	1.67	IC50 (HEPG2TOX_HILL_SLOPE 2.29, HEPG2TOX_R_SQUARED 0.813, PBLUC_HILL_SLOPE 10.9, PBLUC_R_SQUARED 0.679, read-out: LUCIFERASE INFECTION ASSAY - IC50): 1.36 µM
COc1cccc(CN2CCC2(C)C(=O)Nc2cccc(Oc3ccccc3)c2)c1F (configuration not stated)	> 7.85	IC50 (HEPG2TOX_HILL_SLOPE 2.25, HEPG2TOX_R_SQUARED 0.907, PBLUC_HILL_SLOPE 3.39, PBLUC_R_SQUARED 0.419, read-out: LUCIFERASE INFECTION ASSAY - IC50): 5.73 µM
COc1cc(Nc2ncc3c(n2)CCN(C(=O)Nc2ccc(C(C)C)cc2)C3)cc(OC)c1OC	6.4	IC50 (HEPG2TOX_HILL_SLOPE 2.3, HEPG2TOX_R_SQUARED 0.688, PBLUC_HILL_SLOPE 0.8, PBLUC_R_SQUARED 0.723, read-out: LUCIFERASE INFECTION ASSAY - IC50): 0.411 µM
CC(Sc1nc(Nc2ccccc2)c2ccccc2n1)C(=O)Nc1sccc1C#N (configuration not stated)	> 10	IC50 (HEPG2TOX_HILL_SLOPE 2.3, HEPG2TOX_R_SQUARED 0.812, read-out: LUCIFERASE INFECTION ASSAY - IC50): > 10 µM
O=C1CC(c2ccc(Cl)cc2)Cc2c1cnn2-c1ccc(Cl)cc1 (configuration not stated)	> 9.24	IC50 (HEPG2TOX_HILL_SLOPE 2.3, HEPG2TOX_R_SQUARED 0.887, PBLUC_HILL_SLOPE 1.56, PBLUC_R_SQUARED 0.715, read-out: LUCIFERASE INFECTION ASSAY - IC50): 2.9 µM
COc1ccccc1C(=O)c1cnc(Nc2cccc(Oc3ccccc3)c2)[nH]1	3.37	IC50 (HEPG2TOX_HILL_SLOPE 2.29, HEPG2TOX_R_SQUARED 0.975, PBLUC_HILL_SLOPE 12.2, PBLUC_R_SQUARED 0.607, read-out: LUCIFERASE INFECTION ASSAY - IC50): 2.81 µM
O=C(NCc1ccc(Oc2ccc(F)cc2)cc1)c1ccc(=O)[nH]n1	> 10	IC50 (HEPG2TOX_HILL_SLOPE 2.29, HEPG2TOX_R_SQUARED 0.724, PBLUC_HILL_SLOPE 1.94, PBLUC_R_SQUARED 0.162, read-out: LUCIFERASE INFECTION ASSAY - IC50): 5.95 µM
O=C(c1ccc(S(=O)(=O)C(F)(F)F)cc1)N1CCN(Cc2csc(-c3ccccc3)n2)CC1	4.21	IC50 (HEPG2TOX_HILL_SLOPE 2.26, HEPG2TOX_R_SQUARED 0.817, PBLUC_HILL_SLOPE 12.1, PBLUC_R_SQUARED 0.456, read-out: LUCIFERASE INFECTION ASSAY - IC50): 3.51 µM
Cc1cccc(N2CCN(C(=O)c3cccc(OCc4c(C)noc4C)c3)CC2)c1C	> 10	IC50 (HEPG2TOX_HILL_SLOPE 2.27, HEPG2TOX_R_SQUARED 0.832, PBLUC_HILL_SLOPE 9.75, PBLUC_R_SQUARED 0.237, read-out: LUCIFERASE INFECTION ASSAY - IC50): 9.51 µM
CC(=O)Nc1cccc(-c2cn3c(-c4ccc5c(ccn5C)c4)cnc3cn2)c1	7.79	IC50 (HEPG2TOX_HILL_SLOPE 2.25, HEPG2TOX_R_SQUARED 0.952, PBLUC_HILL_SLOPE 1.38, PBLUC_R_SQUARED 0.642, read-out: LUCIFERASE INFECTION ASSAY - IC50): 1.59 µM
C/C(=N\NC(=O)c1ccc(OCC(=O)N2C(C)CCCC2C)cc1)c1ccc2ccccc2c1O (configuration not stated)	3.9	IC50 (HEPG2TOX_HILL_SLOPE 2.27, HEPG2TOX_R_SQUARED 0.93, PBLUC_HILL_SLOPE 2.78, PBLUC_R_SQUARED 0.436, read-out: LUCIFERASE INFECTION ASSAY - IC50): 1.77 µM
Clc1ccc2c(c1)-c1nc(-c3ccncc3)ncc1CS2	5.94	IC50 (HEPG2TOX_HILL_SLOPE 2.28, HEPG2TOX_R_SQUARED 0.969, PBLUC_HILL_SLOPE 3.97, PBLUC_R_SQUARED 0.207, read-out: LUCIFERASE INFECTION ASSAY - IC50): 3.41 µM
COc1cccc(C(=O)Nc2nc3ccccn3c2C(=O)NC2CCCCC2)c1	2.95	IC50 (HEPG2TOX_HILL_SLOPE 2.26, HEPG2TOX_R_SQUARED 0.97, PBLUC_HILL_SLOPE 3.61, PBLUC_R_SQUARED 0.707, read-out: LUCIFERASE INFECTION ASSAY - IC50): 1.61 µM
C(=C1\CCc2cnc3scc[n+]3c21)/c1ccccc1	> 10	IC50 (HEPG2TOX_HILL_SLOPE 2.32, HEPG2TOX_R_SQUARED 0.938, read-out: LUCIFERASE INFECTION ASSAY - IC50): > 10 µM

Compound	IC90 [µM]	also measured
O=C(Nc1ccc(OCc2ccccc2)cc1)C1=COC2=NC(=O)N(Cc3cccc(Cl)c3)CCN12	4.47	IC50 (HEPG2TOX_HILL_SLOPE 2.27, HEPG2TOX_R_SQUARED 0.429, PBLUC_HILL_SLOPE 8.12, PBLUC_R_SQUARED 0.376, read-out: LUCIFERASE INFECTION ASSAY - IC50): 3.41 µM
O=C1C=C/C(=N\Nc2ccc3ncsc3c2)c2cccnc21	> 10	IC50 (HEPG2TOX_HILL_SLOPE 2.28, HEPG2TOX_R_SQUARED 0.978, PBLUC_HILL_SLOPE 13.8, PBLUC_R_SQUARED 0.454, read-out: LUCIFERASE INFECTION ASSAY - IC50): 8.95 µM
Cc1nc(NC(=O)c2cnn(C)c2)sc1Cc1ccccc1Cl	3.3	IC50 (HEPG2TOX_HILL_SLOPE 2.29, HEPG2TOX_R_SQUARED 0.901, PBLUC_HILL_SLOPE 11.8, PBLUC_R_SQUARED 0.668, read-out: LUCIFERASE INFECTION ASSAY - IC50): 2.74 µM
COCOc1ccc(-c2cc(-c3cccc4cccnc34)cnc2N)cc1	> 9.23	IC50 (HEPG2TOX_HILL_SLOPE 2.28, HEPG2TOX_R_SQUARED 0.55, PBLUC_HILL_SLOPE 1.41, PBLUC_R_SQUARED 0.714, read-out: LUCIFERASE INFECTION ASSAY - IC50): 3.26 µM
Nc1ncc(-c2cccc(OC(F)(F)F)c2)cc1-c1cncc2ccccc12	3.99	IC50 (HEPG2TOX_HILL_SLOPE 2.29, HEPG2TOX_R_SQUARED 0.959, PBLUC_HILL_SLOPE 12.1, PBLUC_R_SQUARED 0.284, read-out: LUCIFERASE INFECTION ASSAY - IC50): 3.33 µM
O=C(Nc1ccc(Oc2ccc3ccccc3c2)cc1)c1ccccc1	1.16	IC50 (HEPG2TOX_HILL_SLOPE 2.3, HEPG2TOX_R_SQUARED 0.782, PBLUC_HILL_SLOPE 2.18, PBLUC_R_SQUARED 0.822, read-out: LUCIFERASE INFECTION ASSAY - IC50): 0.424 µM
C=CCN(C(=O)c1cccc(S(=O)(=O)N2CCCC2)c1)c1nc2c(s1)CCCC2	8.77	IC50 (HEPG2TOX_HILL_SLOPE 2.26, HEPG2TOX_R_SQUARED 0.795, PBLUC_HILL_SLOPE 11.6, 3.98, PBLUC_R_SQUARED 0.244, 0.586, read-out: LUCIFERASE INFECTION ASSAY - IC50): 7.23 µM
COCCNC(=S)NNc1ccc2ccccc2c1	1.19	IC50 (HEPG2TOX_HILL_SLOPE 2.26, HEPG2TOX_R_SQUARED 0.95, PBLUC_HILL_SLOPE 42.9, PBLUC_R_SQUARED 0.446, read-out: LUCIFERASE INFECTION ASSAY - IC50): 1.13 µM
CCOCCSc1nc(-c2ccccc2)c(-c2ccccc2)[nH]1	> 10	IC50 (HEPG2TOX_HILL_SLOPE 2.32, HEPG2TOX_R_SQUARED 0.811, read-out: LUCIFERASE INFECTION ASSAY - IC50): > 10 µM
CCC(C)NC(=O)c1c(NC(=O)c2cccc(C#N)c2)nc2ccc(C)cn12 (configuration not stated)	3.79	IC50 (HEPG2TOX_HILL_SLOPE 2.26, HEPG2TOX_R_SQUARED 0.914, PBLUC_HILL_SLOPE 14.3, PBLUC_R_SQUARED 0.23, read-out: LUCIFERASE INFECTION ASSAY - IC50): 3.25 µM
OC1CCN(c2ccnc3c(-c4ccc(Oc5ccccc5)cc4)cnn23)CC1	7.21	IC50 (HEPG2TOX_HILL_SLOPE 2.26, HEPG2TOX_R_SQUARED 0.638, PBLUC_HILL_SLOPE 2.48, PBLUC_R_SQUARED 0.699, read-out: LUCIFERASE INFECTION ASSAY - IC50): 2.98 µM
COc1cccc(-c2cc3c(cn2)nc(NCCc2cc(OC)ccc2OC)n3C)c1	0.667	IC50 (HEPG2TOX_HILL_SLOPE 2.25, HEPG2TOX_R_SQUARED 0.767, PBLUC_HILL_SLOPE 1.04, PBLUC_R_SQUARED 0.785, read-out: LUCIFERASE INFECTION ASSAY - IC50): 0.0813 µM
O=C(Nc1ccc(Cl)c(Cl)c1)n1ccc(C(F)(F)F)n1	> 10.2	IC50 (HEPG2TOX_HILL_SLOPE 2.26, HEPG2TOX_R_SQUARED 0.289, PBLUC_HILL_SLOPE 2.6, PBLUC_R_SQUARED 0.537, read-out: LUCIFERASE INFECTION ASSAY - IC50): 5.64 µM
Clc1ccccc1-c1nc2ccnc(NCCc3ccccn3)c2[nH]1	> 10	IC50 (HEPG2TOX_HILL_SLOPE 2.25, HEPG2TOX_R_SQUARED 0.756, PBLUC_HILL_SLOPE 1.33, PBLUC_R_SQUARED 0.656, read-out: LUCIFERASE INFECTION ASSAY - IC50): 5.37 µM
CCOc1ccccc1NC(=O)C(NCc1ccc(OC(F)F)cc1)c1ccccc1 (configuration not stated)	4.47	IC50 (HEPG2TOX_HILL_SLOPE 2.27, HEPG2TOX_R_SQUARED 0.924, PBLUC_HILL_SLOPE 9.94, PBLUC_R_SQUARED 0.658, read-out: LUCIFERASE INFECTION ASSAY - IC50): 3.59 µM
